PubChem BioAssay (NCI)
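Results reflect a 48-hour exposure of cells in 96-well plates to compound at five concentrations. GI50 is the concentration that inhibits growth by half. TGI is the concentration that stops growth completely.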

Key:
Test in all cases: NCI-60 cell line screen, 48 h
COLO 205 colon = test system: COLO 205 colon
SN12C renal = test system: SN12C renal
LOX IMVI melanoma = test system: LOX IMVI melanoma
M14 melanoma = test system: M14 melanoma
SW-620 colon = test system: SW-620 colon
ACHN renal = test system: ACHN renal
MDA-MB-468 breast = test system: MDA-MB-468 breast
SK-MEL-5 melanoma = test system: SK-MEL-5 melanoma
MCF7 breast = test system: MCF7 breast
SK-MEL-28 melanoma = test system: SK-MEL-28 melanoma
KM12 colon = test system: KM12 colon
DU-145 prostate = test system: DU-145 prostate
OVCAR-8 ovarian = test system: OVCAR-8 ovarian
RPMI-8226 leukemia = test system: RPMI-8226 leukemia
HL-60(TB) leukemia = test system: HL-60(TB) leukemia
IGROV1 ovarian = test system: IGROV1 ovarian
HOP-62 NSCLC = test system: HOP-62 NSCLC
T-47D breast = test system: T-47D breast
CAKI-1 renal = test system: CAKI-1 renal
MDA-MB-435 = test system: MDA-MB-435
EKVX NSCLC = test system: EKVX NSCLC
OVCAR-5 ovarian = test system: OVCAR-5 ovarian
NCI/ADR-RES ovarian = test system: NCI/ADR-RES ovarian
UACC-62 melanoma = test system: UACC-62 melanoma
OVCAR-4 ovarian = test system: OVCAR-4 ovarian
UACC-257 melanoma = test system: UACC-257 melanoma
SK-MEL-2 melanoma = test system: SK-MEL-2 melanoma
HT29 colon = test system: HT29 colon
MDA-MB-231 breast = test system: MDA-MB-231 breast
U251 CNS = test system: U251 CNS
SF-295 CNS = test system: SF-295 CNS
HOP-92 NSCLC = test system: HOP-92 NSCLC
SF-539 CNS = test system: SF-539 CNS
MALME-3M melanoma = test system: MALME-3M melanoma
NCI-H522 lung = test system: NCI-H522 lung
NCI-H226 lung = test system: NCI-H226 lung
OVCAR-3 ovarian = test system: OVCAR-3 ovarian
RXF 393 renal = test system: RXF 393 renal
HCT-15 colon = test system: HCT-15 colon
PC-3 prostate = test system: PC-3 prostate
BT-549 breast = test system: BT-549 breast
A549 NSCLC = test system: A549 NSCLC
NCI-H460 lung = test system: NCI-H460 lung
CCRF-CEM leukemia = test system: CCRF-CEM leukemia
786-0 renal = test system: 786-0 renal
TK-10 renal = test system: TK-10 renal
SNB-75 CNS = test system: SNB-75 CNS
SF-268 CNS = test system: SF-268 CNS
SNB-19 CNS = test system: SNB-19 CNS
SK-OV-3 ovarian = test system: SK-OV-3 ovarian
NCI-H23 lung = test system: NCI-H23 lung
HCT-116 colon = test system: HCT-116 colon
HCC-2998 colon = test system: HCC-2998 colon
A498 renal = test system: A498 renal
UO-31 renal = test system: UO-31 renal
HS 578T breast = test system: HS 578T breast

COc1cc2oc(-c3cccc(C(=O)Nc4ccc(Cl)cc4)c3)cc(=O)c2c(OCCN)c1OC
GI50 (COLO 205 colon): 3.03 µM
TGI (COLO 205 colon): 12.6 µM
GI50 (SN12C renal): 6.12 µM
TGI (SN12C renal): 19 µM
GI50 (LOX IMVI melanoma): 1.48 µM
TGI (LOX IMVI melanoma): 2.8 µM
GI50 (M14 melanoma): 2.02 µM
TGI (M14 melanoma): 4 µM
GI50 (SW-620 colon): 1.85 µM
TGI (SW-620 colon): 3.46 µM
GI50 (ACHN renal): 10.6 µM
TGI (ACHN renal): 22.4 µM
GI50 (MDA-MB-468 breast): 1.52 µM
TGI (MDA-MB-468 breast): 3.03 µM
GI50 (SK-MEL-5 melanoma): 1.72 µM
TGI (SK-MEL-5 melanoma): 3.33 µM
GI50 (MCF7 breast): 1.66 µM
TGI (MCF7 breast): 3.14 µM
GI50 (SK-MEL-28 melanoma): 1.64 µM
TGI (SK-MEL-28 melanoma): 3.03 µM
GI50 (KM12 colon): 6.84 µM
TGI (KM12 colon): 23.9 µM
GI50 (DU-145 prostate): 5.98 µM
TGI (DU-145 prostate): 18.3 µM
GI50 (OVCAR-8 ovarian): 4.09 µM
TGI (OVCAR-8 ovarian): 19.4 µM
GI50 (RPMI-8226 leukemia): 2.3 µM
TGI (RPMI-8226 leukemia): 5.5 µM
GI50 (HL-60(TB) leukemia): 2.38 µM
TGI (HL-60(TB) leukemia): 5.9 µM
GI50 (IGROV1 ovarian): 4.18 µM
TGI (IGROV1 ovarian): 18.1 µM
GI50 (HOP-62 NSCLC): 1.82 µM
TGI (HOP-62 NSCLC): 4.19 µM
GI50 (T-47D breast): 3.74 µM
TGI (T-47D breast): 23.4 µM
GI50 (CAKI-1 renal): 11.2 µM
TGI (CAKI-1 renal): 23.6 µM
GI50 (MDA-MB-435): 1.82 µM
TGI (MDA-MB-435): 3.65 µM
GI50 (EKVX NSCLC): 5.66 µM
TGI (EKVX NSCLC): 18.6 µM
GI50 (OVCAR-5 ovarian): 5.14 µM
TGI (OVCAR-5 ovarian): 18 µM
GI50 (NCI/ADR-RES ovarian): 13.6 µM
TGI (NCI/ADR-RES ovarian): 30.9 µM
GI50 (UACC-62 melanoma): 9.27 µM
TGI (UACC-62 melanoma): 22 µM
GI50 (OVCAR-4 ovarian): 4.38 µM
TGI (OVCAR-4 ovarian): 16.8 µM
GI50 (UACC-257 melanoma): 1.73 µM
TGI (UACC-257 melanoma): 3.41 µM
GI50 (SK-MEL-2 melanoma): 4.02 µM
TGI (SK-MEL-2 melanoma): 16.2 µM
GI50 (HT29 colon): 2.28 µM
TGI (HT29 colon): 5.62 µM
GI50 (MDA-MB-231 breast): 2.63 µM
TGI (MDA-MB-231 breast): 7.92 µM
GI50 (U251 CNS): 1.79 µM
TGI (U251 CNS): 3.27 µM
GI50 (SF-295 CNS): 1.8 µM
TGI (SF-295 CNS): 3.69 µM
GI50 (HOP-92 NSCLC): 2.09 µM
TGI (HOP-92 NSCLC): 16.5 µM
GI50 (SF-539 CNS): 3.13 µM
TGI (SF-539 CNS): 10.2 µM
GI50 (MALME-3M melanoma): 1.8 µM
TGI (MALME-3M melanoma): 3.35 µM
GI50 (NCI-H522 lung): 4.24 µM
TGI (NCI-H522 lung): 19.8 µM
GI50 (NCI-H226 lung): 13.4 µM
TGI (NCI-H226 lung): 30.3 µM
GI50 (OVCAR-3 ovarian): 3.77 µM
TGI (OVCAR-3 ovarian): 11.7 µM
GI50 (RXF 393 renal): 3.23 µM
TGI (RXF 393 renal): 12.7 µM
GI50 (HCT-15 colon): 2.82 µM
TGI (HCT-15 colon): 8.51 µM
GI50 (PC-3 prostate): 2.89 µM
TGI (PC-3 prostate): 19.8 µM
GI50 (BT-549 breast): 6.3 µM
TGI (BT-549 breast): 25.7 µM
GI50 (A549 NSCLC): 4.06 µM
TGI (A549 NSCLC): 20.7 µM
GI50 (NCI-H460 lung): 3.17 µM
TGI (NCI-H460 lung): 10.5 µM
GI50 (CCRF-CEM leukemia): 2.16 µM
TGI (CCRF-CEM leukemia): 4.84 µM
GI50 (786-0 renal): 2.04 µM
TGI (786-0 renal): 4.14 µM
GI50 (TK-10 renal): 7.19 µM
TGI (TK-10 renal): 21.8 µM
GI50 (SNB-75 CNS): 10.1 µM
TGI (SNB-75 CNS): 24.1 µM
GI50 (SF-268 CNS): 11.8 µM
TGI (SF-268 CNS): 29.7 µM
GI50 (SNB-19 CNS): 4.02 µM
TGI (SNB-19 CNS): 13.9 µM
GI50 (SK-OV-3 ovarian): 11.8 µM
TGI (SK-OV-3 ovarian): 31.9 µM
GI50 (NCI-H23 lung): 6.22 µM
TGI (NCI-H23 lung): 19 µM
GI50 (HCT-116 colon): 2.39 µM
TGI (HCT-116 colon): 5.84 µM
GI50 (HCC-2998 colon): 2.37 µM
TGI (HCC-2998 colon): 6.58 µM
GI50 (A498 renal): 20.7 µM
TGI (A498 renal): 40.4 µM
GI50 (UO-31 renal): 13 µM
TGI (UO-31 renal): 25.7 µM
GI50 (HS 578T breast): 5.21 µM
TGI (HS 578T breast): 25.3 µM
